In patent publication US20260256759A1, “CONCOMITANT ADMINISTRATION OF GLUCOCORTICOID RECEPTOR MODULATOR RELACORILANT AND CYP2C8 SUBSTRATES” (priority 2020, published 2026):

Target: T1, CYP2C8 (Homo sapiens, UniProt P10632)
T1 sequence (P10632 1-490): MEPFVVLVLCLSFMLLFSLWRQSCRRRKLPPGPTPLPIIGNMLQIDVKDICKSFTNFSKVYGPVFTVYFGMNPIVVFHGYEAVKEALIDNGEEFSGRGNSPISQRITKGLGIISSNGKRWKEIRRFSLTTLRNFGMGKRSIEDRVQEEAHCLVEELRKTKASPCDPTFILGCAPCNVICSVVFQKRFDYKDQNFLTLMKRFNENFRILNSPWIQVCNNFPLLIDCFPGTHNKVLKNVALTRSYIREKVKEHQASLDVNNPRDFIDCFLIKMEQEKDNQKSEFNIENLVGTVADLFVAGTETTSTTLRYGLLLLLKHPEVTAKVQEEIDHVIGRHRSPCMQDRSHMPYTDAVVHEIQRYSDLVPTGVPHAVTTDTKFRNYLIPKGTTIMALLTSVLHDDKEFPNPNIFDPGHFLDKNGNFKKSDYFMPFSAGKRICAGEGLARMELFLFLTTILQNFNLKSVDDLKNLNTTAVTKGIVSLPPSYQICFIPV
Assay: Clinical drug-drug interaction study in healthy volunteers (pioglitazone with/without relacorilant)
Conditions: Treatment E (with relacorilant 350 mg) vs Treatment B (alone)
Method: An open-label, crossover study was conducted in healthy subjects to determine the effect of relacorilant on the plasma exposure of pioglitazone, a known probe substrate CYP2C8. A single dose of 15 mg of pioglitazone was administered alone and pharmacokinetic (PK) samples were collected before dosing (0 hour) and at 0.5, 1, 1.5, 2, 2.5, 3, 4, 6, 8, 12, 18, 24, 36, 48, 60, and 72 hours post-dose. Relacorilant (350 mg) was then administered once a day for 10 consecutive days. On the following day, a single dose of 15 mg of pioglitazone was administered in combination with relacorilant 350 mg and pharmacokinetic (PK) samples were again collected at pre-dose through 72 hours post-dose at the same timepoints as described above. The plasma concentrations of pioglitazone and its metabolite, pioglitazone M4 were evaluated by validated bioanalytical assays on each dosing occasion of pioglitazone.

AUC0-tz, Ratio of Geometric LSMs (Test/Reference): 74.71%
AUCinf, Ratio of Geometric LSMs (Test/Reference): 74.83%
Cmax, Ratio of Geometric LSMs (Test/Reference): 77.82%
Compound: CCc1ccc(CCOc2ccc(CC3SC(=O)NC3=O)cc2)nc1 (stereo not drawn) [Pioglitazone, pioglitazone]
